System: melanoma patients
Assay: Survival and IHC biomarker expression in melanoma patients undergoing anti-PD-1 therapy
Assay type: in vivo, human
Details: for progression-free survival: greater than 25% vs less than 25% 4E-BP1 expression in pre-treatment biopsies; for progression-free survival / overall survival: Kaplan-Meier; for patients still alive 35 months after initiation of treatment: melanoma patients with >25% p-SHP2 expression in pre-treatment biopsies; for overall survival: n=34, >25% vs less than 25% melanoma-p-S6 expression in pre-treatment biopsies
Protocol: As used herein, the term “progression-free survival” refers to the time from the first administration of anti-PD-1-based therapy to the first documented radiographic evidence of progressive disease. The term “overall survival” is defined as the time from the first administration of anti-PD-1 therapy to the date of death, regardless of cause.
Tumor cell lines, culture methods and clinical specimens: Human G3361 and C8161 and murine B16-F10 melanoma cell lines were cultured in RPMI-1640 medium (Life Technologies) supplemented with 10% (v/v) fetal bovine serum (Life Technologies) and 1% (v/v) penicillin streptomycin (Life Technologies) and human MKL-1, MKL-2, MS-1, and WaGa Merkel cell carcinoma cell lines in RPMI-1640 medium supplemented with 20% (v/v) fetal bovine serum and 1% (v/v) penicillin streptomycin. Clinical melanoma specimens were obtained from patients in accordance with the Institutional Review Boards of Partners Health Care Research Management, Boston, Mass. and the University of Zurich, Switzerland. Informed consent was obtained from all subjects.
Immunohistochemical (IHC) staining methods: Tumor biopsy sections were deparaffininzed in xylene and subsequently rehydrated with 100%, 95%, and 75% ethanol and deionized H2O. Sections were placed in target retrieval solution (Dako) and boiled in a Pascal pressure chamber (Dako) at 125° C. for 30 seconds, 90° C. for 10 seconds, and then cooled down to room temperature. IHC was performed using the two-step peroxidase or alkaline phosphatase method. For peroxidase-based detection of p-S6 and p-AKT, sections were incubated with 1 ug/ml rabbit anti-p-56 ribosomal protein or rabbit anti-p-AKT (Ser473) antibody (Cell Signaling Technology) at 4° C. overnight and then incubated with a 1:200 dilution of goat anti-rabbit IgG peroxidase conjugated antibody (Vector Laboratories) at room temperature for 1 hour. Immunoreactivity was detected using the NovaRed peroxidase substrate (Vector laboratories), according to the manufacturer's protocol. For alkaline phosphatase-based detection of t-SHP2, p-SHP2, p-S6, p-AKT, p-PI3K, p-PDK1, 4E-BP1, or p-eIF-4G, sections were incubated with a 1:200 dilution of t-SHP2, p-SHP2 (Santa Cruz Biotechnology), p-S6, p-AKT, p-PI3K, p-PDK1, 4E-BP1, or p-eIF-4G antibody (Cell Signaling Technology) for 1 hour at room temperature, followed by incubation with a 1:100 dilution of biotin-conjugated secondary antibody (R&D Systems) for 30 minutes at room temperature and a subsequent incubation with a 1:100 dilution of streptavidin-alkaline phosphatase (Roche) for 30 minutes at room temperature. Immunoreactivity was detected using the FAST Red Chromogen System (Biolegend), per the manufacturer's instructions. Nuclear counterstaining (blue) was performed with Meyer's haemalum for both methods.
Imaging and quantification of IHC tumor sections: All images of IHC-stained sections were analyzed with a Nikon microscope (DXM 1200F) and captured using the NIS-Elements software (BR 2.30 Nikon). Expression of p-S6 and 4E-BP1 antigens was graded by n=2-3 independent investigators blinded to the study outcome on a scale of 0-4 (0: no p-S6 expression by melanoma cells; 1: p-S6 expression in 1%-25%; 2: 26%-50%; 3:51%-75%; 4: >75% of melanoma cells). For each slide, at least two areas with the highest numbers of 5-100(+) and MART-1(+) melanoma cells, as determined in serial sections, were selected for analysis.

| Substance | progression-free survival | patients still alive 35 months after initiation of treatment [%] | overall survival |
| --- | --- | --- | --- |
| Nivolumab | significantly increased | 100 | significantly enhanced |
| Pembrolizumab | significantly increased | 100 | significantly enhanced |

From US20180231554A1, “PROGRAMMED CELL DEATH (PD-1) INHIBITOR THERAPY FOR PATIENTS WITH PD-1-EXPRESSING CANCERS” (The Brigham and Women's Hospital, Inc., priority 2015, published 2018)
